2 substances from ChEMBL document CHEMBL6092164, “Rational design, synthesis, and biophysical characterization of a peptidic MDM2-MDM4 interaction inhibitor” (Bioorg Med Chem, 2024) can be followed below.

This assay has as its target E3 ubiquitin-protein ligase Mdm2 (Homo sapiens, UniProt Q00987). Briefly: Binding affinity to RED dye fluorescently labelled full length human recombinant GST-tagged MDM2 expressed in Escherichia coli BL21 cells assessed as dissociation constant incubated for 60 mins in dark by Microscale Thermophoresis assay. In general terms: In MST a laser heats a spot of the sample, and binding alters the fluorescence response.

Sequence of E3 ubiquitin-protein ligase Mdm2 (Q00987 whole entry): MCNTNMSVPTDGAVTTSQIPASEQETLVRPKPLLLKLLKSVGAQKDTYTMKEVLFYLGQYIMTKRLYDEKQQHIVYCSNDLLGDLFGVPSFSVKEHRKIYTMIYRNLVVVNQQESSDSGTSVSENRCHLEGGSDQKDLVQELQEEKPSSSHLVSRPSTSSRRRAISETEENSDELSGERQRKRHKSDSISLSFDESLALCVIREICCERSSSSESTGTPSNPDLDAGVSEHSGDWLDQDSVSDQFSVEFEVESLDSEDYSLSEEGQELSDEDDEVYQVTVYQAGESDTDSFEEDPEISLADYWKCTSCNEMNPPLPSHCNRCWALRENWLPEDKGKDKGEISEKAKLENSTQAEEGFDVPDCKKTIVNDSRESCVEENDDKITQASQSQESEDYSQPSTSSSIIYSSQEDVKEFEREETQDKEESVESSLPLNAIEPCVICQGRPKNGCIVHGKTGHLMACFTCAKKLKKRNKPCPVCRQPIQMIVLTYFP

What is called Kd is the equilibrium constant for the complex coming apart. As for H-KVFIA-OH, the Kd was determined as 19.2 µM. In the case of H-VAIKF-OH, the Kd was over 1000 µM.
